Key:
[1] = tested on: wild type Aspergillus fumigatus; experiment: Microbroth dilution (MIC), CLSI M38; assay type: cell-based; details: FIG. 5H
Procedure: (§1) Clinical and Laboratory Standards Institute (CLSI) protocol M27 was used to quantify the minimum inhibitory concentration (MIC) of compounds 13 and 33 against yeast fungal pathogens (13). Briefly, compounds were solubilized in 100% DMSO and serially diluted two-fold in a 96 well plate in 100 μl of RPMI medium. A 100 μl aliquot of RPMI medium containing 3×10^3 yeast/ml of an overnight culture was then added to each well. Medium, medium+yeast, and medium+yeast+DMSO wells were prepared as controls. Each well was prepared in triplicate. The plates were incubated at 35° C. for 48 hours. The MIC concentration was defined as the concentration at which no growth was visible by eye and the results verified by plating on YPD agar. The experiment was performed in duplicate. MIC concentrations were also defined against filamentous fungi using the CLSI protocol M38 (14). This protocol only differed from M27 in that 100 μl of medium containing 4×10^5 spores/ml were added instead of yeast (FIG. 5A-I).

Cryptococcus neoformans = experiment: Microbroth dilution (MIC), CLSI M27; assay type: cell-based; details: FIG. 5F
Procedure: as §1

C. krusei = experiment: Microbroth dilution (MIC), CLSI M27; assay type: cell-based; details: FIG. 5D
Procedure: as §1

Candida albicans = experiment: Microbroth dilution (MIC), CLSI M27; assay type: cell-based; details: FIG. 5A
Procedure: as §1

C. lusitaniae = experiment: Microbroth dilution (MIC), CLSI M27; assay type: cell-based; details: FIG. 5C
Procedure: as §1

C. gattii = experiment: Microbroth dilution (MIC), CLSI M27; assay type: cell-based; details: FIG. 5G
Procedure: as §1

C. glabrata = experiment: Microbroth dilution (MIC), CLSI M27; assay type: cell-based; details: FIG. 5E
Procedure: as §1

Drk1 reporter strain = Drk1 reporter strain corroboration; assay type: cell-based
Excerpt: The results of the Hik1 histidine kinase reporter strain were corroborated with a Drk1 reporter strain, especially regarding compounds 13 and 33. Dr. David Andes, Dr. Nancy Keller, and the clinical microbiology laboratory at the University of Wisconsin Hospital provided the microbial strains used in this study (9-12).

Aspergillus fumigatus = experiment: Agar disk diffusion; assay type: cell-based; details: disks containing 1 μg of test compound; FIG. 4
Procedure: Small molecule activity against the fungal pathogens Candida albicans and Aspergillus fumigatus was evaluated using an agar disk diffusion assay. Yeast (1×10^4) from an overnight culture of C. albicans was suspended in 600 μl of top agar (1% yeast extract (ThermoFisher), 2% peptone (ThermoFisher), 2% dextrose (Sigma), and 0.5% agar (Fisher)). This suspension was spread and allowed to solidify on 5 ml of base agar (YPD media containing 2% agar) in the well of a 6-well plate. Disks (6 mm AA, Whatman Inc., Piscataway, N.J., Cat#2017-006) were aseptically placed on a sterile Petri dish lid. Compounds selected from stage II (1 μg total) were each suspended in 100% dimethyl sulfoxide (DMSO) to a total volume of 5 μl, added to separate disks, and allowed to dry for five minutes. Fludioxonil (Sigma) and DMSO-only disks served as positive and negative controls, respectively. Disks were placed into separate wells and incubated at room temperature for 48 hours. Antifungal activity was determined based on the size of the zone of inhibition of C. albicans growth.
Activity against A. fumigatus was determined following the aforementioned disk diffusion assay. The protocol only differed in that 6.0×10^5 conidia were used instead of yeast, and the plates were incubated at 37° C. for 48 hours instead of room temperature (FIG. 4).

Aspergillus flavus = experiment: Microbroth dilution against plant fungal pathogen; assay type: cell-based; details: four isolates of A. flavus; FIG. 8
Procedure: as §1, with “M38” left out, “5A-I). […] Briefly, the MICs of compounds 13 and 33 were determined for each of the 4 isolates and compared with the conventional antifungal compound, voriconazole (available from Sigma). […]” for “5A-I).”

[2] = tested on: C. albicans resistant to conventional antifungals fluconazole and micafungin; experiment: Microbroth dilution (MIC), CLSI M27; assay type: cell-based, Candida albicans; details: FIG. 5B
Procedure: as §1

Candida albicans biofilm = experiment: In vitro biofilm drug synergy (checkerboard, XTT); assay type: cell-based; details: for Synergy with Fluconazole by fractional inhibitory concentration (FIC): FIC from EC25, values ≦0.5 indicate synergy, FIG. 9; for growth reduction: alone and in combination
Procedure: Candida biofilms were formed in 96-well flat-bottom polystyrene plates (Fischer) as described previously ([…], Crawford K, Andes D R. Optimizing a Candida Biofilm Microtiter Plate Model for Measurement of Antifungal Susceptibility by XTT Assay. J. Clin. Microbiol. 2011 Jan., 2). Cells from an overnight culture grown in YPD shaking at 37° C. were enumerated by hemocytometer and suspended in RPMI-MOPS (Fisher) at a concentration of 10^6 cells/ml. A 100 μl of inoculum was added to each well of the plate. After 6 h incubation at 37° C., biofilms were gently washed twice with phosphate-buffered saline (PBS) to remove unattached cells. […] The ranges of concentrations of the fluconazole used included the standard doses given to humans. After overnight incubation at 37° C., biofilms were washed twice with PBS. Measurement of biofilm cell metabolic activity using the XTT reduction assay was performed as previously described ([…], Crawford K, Andes D R. Optimizing a Candida Biofilm Microtiter Plate Model for Measurement of Antifungal Susceptibility by XTT Assay. J. Clin. Microbiol. 2011 January, […], and Andes D. Synergistic Effect of Calcineurin Inhibitors and Fluconazole against Candida albicans Biofilms. Antimicrob Agents Chemother. 2008 March; 52(3): 1127-1132). Briefly, 90 μl of XTT at 1 mg/ml (Sigma) and 10 μl phenazine methosulfate at 320 μg/ml (Sigma) were added to each well, and the plate was incubated at 37° C. for 2 h. Viable cell number was assessed using the Absorbance at 492nm measured using an automated plate reader. Assays were performed in duplicate. The drug concentration resulting in a 25% reduction in optical density compared to the no-drug control wells was determined (EC25).

[3] = tested on: drug resistant A. fumigatus; experiment: Microbroth dilution (MIC), CLSI M38; assay type: cell-based, Aspergillus fumigatus; details: FIG. 5I
Procedure: as §1

[4] = tested on: Candida albicans biofilms; experiment: Candida biofilm XTT reduction assay; assay type: cell-based; details: 24 hours, FIG. 6
Procedure: Compound activity against C. albicans biofilm was assessed using a 96-well plate format as previously described by Nett et al. (15). Briefly, the C. albicans inoculum was prepared by diluting an overnight culture grown at 37° C. in RPMI-MOPS to 1×10^6 in RPMI-MOPS based on hemocytometer counts. An aliquot of 100 μl of the inoculum was added to each well of a 96-well flat-bottom polystyrene plate. After a 6-h incubation at 37° C., the wells were washed with phosphate-buffered saline (PBS) three times to remove any non-adherent cells. Fresh medium and fluconazole (Sigma), compound 13, and compound 33 were added and the plates were incubated at 37° C. for 24 hours. The XTT reduction assay was used to quantify the viability of biofilm cell as previously described (11). Briefly, 90 μl of (2,3)-bis-(2-Methoxy-4-Nitro-5-Sulphenyl)-(2H)-Tetrazolium-5-Carboxanilide (XTT; 1 mg/ml) (Sigma) and 10 μl phenazine methosulfate (320 μg/ml) (Sigma) were added to each well, and the plate was incubated for 2 h at 37° C. Cell viability was determined by measuring the absorbance at 490 nm using an automated plate reader. The biofilm growth assay was performed in duplicate.

Hik1 Saccharomyces = Hik1 Saccharomyces reporter strain growth assay (small molecule screen); assay type: cell-based; details: FIG. 2
Excerpt: To identify putative antifungals that act directly or indirectly through histidine kinase homologs of Drk1, we used a high throughput growth assay that uses a yeast reporter strain expressing a heterologous two-component sensor kinase (Hik1) to identify compounds that target the kinase and inhibit/kill the yeast. Hik1 and Drk1 are very closely related having near 80% amino acid sequence identity (FIG. 1). The Saccharomyces reporter contained an episomal plasmid with the hybrid histidine kinase Hik1 under the control of the galactose promoter (8). The Saccharomyces strain was provided by the Osada lab from RIKEN (Institute of Physical and Chemical Research, 2-1 Hirosawa, Wako, Saitama, 351-0198, Japan). It was used for screening initially. […]

[5] = FIG. 9B, compound 33 experiment: fluconazole at 62.5 ug/ml, 33 at 1.6 ug/ml
[6] = FIG. 9A, compound 13 experiment: fluconazole at 62.5 ug/ml, 13 at 0.8 ug/ml

Procedure for human red blood cells: Briefly, human red blood cells (RBCs) were isolated via FICOLL® (Sigma) gradient centrifugation and stored on ice. The RBCs were pelleted by centrifugation and washed with PBS a total of three times. A 2% RBC suspension in PBS was made and stored on ice for less than one hour. Drugs were suspended in DMSO and two-fold serial dilutions were prepared in PBS with a total volume of 100 μl in a 96-well round-bottom plate in triplicate. Wells containing PBS and Triton X-100 (Sigma) were used as negative and positive controls of hemolysis, respectively. A 100 μl aliquot of the 2% RBC suspension was then added to each well. The plate was then incubated at 37° C. for one hour. The plate was then centrifuged at 2,500 rpm for five minutes to pellet the RBCs. A 50 μl aliquot of the supernatant was transferred to a fresh 96-well plate, and absorbance at 405 nm was measured using an automated plate reader to quantify heme release.

Row | SMILES | Activity (MIC, cumulative inhibition) [1] | Activity (MIC, cumulative inhibition) (Cryptococcus neoformans) | Activity (MIC, cumulative inhibition) (C. krusei) | Activity (MIC, cumulative inhibition) (Candida albicans) | Activity (MIC, cumulative inhibition) (C. lusitaniae) | Activity (MIC, cumulative inhibition) (C. gattii) | Activity (MIC, cumulative inhibition) (C. glabrata) | Hik1 reporter strain results corroborated with Drk1 reporter strain (Drk1 reporter strain) | Inhibition of Aspergillus growth (zone of inhibition) (Aspergillus fumigatus) | Hemolysis (heme release, absorbance at 405 nm) compared with amphotericin B (human red blood cells) | Cumulative inhibition of Aspergillus flavus (Aspergillus flavus) | Activity (MIC, cumulative inhibition) [2] | Synergy with Fluconazole by fractional inhibitory concentration (FIC) (Candida albicans biofilm) | growth reduction (Candida albicans biofilm; [5]) | Activity (MIC, cumulative inhibition) [3] | Concentration inhibiting Candida biofilm growth [4] [µg/mL] | growth reduction (Candida albicans biofilm; [6]) [%] | Growth of Hik1 Saccharomyces on galactose with fludioxonil (Hik1 Saccharomyces; galactose (Hik1 induced)) | Growth of Hik1 Saccharomyces in glucose with fludioxonil (Hik1 Saccharomyces; glucose, which does not induce Hik1)
1 | CSc1nnc(Sc2ncc([N+](=O)[O-])s2)s1 [Compound 33] | active | active | active | active | active | active | active | corroborated | inhibited growth | less hemolytic | inhibition | active | synergy | approximately 9% | active |  |  |  | 
2 | OC(Cn1cncn1)(Cn1cncn1)c1ccc(F)cc1F [fluconazole, reference compound] |  |  |  |  |  |  |  |  |  |  |  |  |  | approximately 6% |  | > 1000 | 15 |  | 
3 | O=[N+]([O-])c1ccc(/C=C/c2ccc([N+](=O)[O-])o2)cc1 [Compound 13] | active | active | active | active | active | active | active | corroborated | inhibited growth | less hemolytic | inhibition | active | synergy |  | active |  | 18 |  | 
4 | N#Cc1c[nH]cc1-c1cccc2c1OC(F)(F)O2 [fludioxonil] |  |  |  |  |  |  |  |  | created zones of inhibition |  |  |  |  |  |  |  |  | inhibited Saccharomyces growth | uninhibited
5 | C[C@@H]1[C@H](O)[C@@H](C)/C=C/C=C/C=C/C=C/C=C/C=C/C=C/[C@H](O[C@@H]2O[C@H](C)[C@@H](O)[C@H](N)[C@@H]2O)C[C@@H]2O[C@](O)(C[C@@H](O)C[C@@H](O)[C@H](O)CC[C@@H](O)C[C@@H](O)CC(=O)O[C@H]1C)C[C@H](O)[C@H]2C(=O)O [amphotericin B, reference compound] |  |  |  |  |  |  |  |  | created zones of inhibition |  |  |  |  |  |  |  |  |  | 
